# Molecular target: ROCK2 (Homo sapiens (Human), UniProt O75116)
# 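Note: rho kinase enzyme reaction halted with EDTA, phospho- and non-phospho peptide separated for read-out, kinase activity inhibition derived across a dose-response series, DMSO under 2%.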
# Chain of ROCK2 (O75116 whole entry, species assumed): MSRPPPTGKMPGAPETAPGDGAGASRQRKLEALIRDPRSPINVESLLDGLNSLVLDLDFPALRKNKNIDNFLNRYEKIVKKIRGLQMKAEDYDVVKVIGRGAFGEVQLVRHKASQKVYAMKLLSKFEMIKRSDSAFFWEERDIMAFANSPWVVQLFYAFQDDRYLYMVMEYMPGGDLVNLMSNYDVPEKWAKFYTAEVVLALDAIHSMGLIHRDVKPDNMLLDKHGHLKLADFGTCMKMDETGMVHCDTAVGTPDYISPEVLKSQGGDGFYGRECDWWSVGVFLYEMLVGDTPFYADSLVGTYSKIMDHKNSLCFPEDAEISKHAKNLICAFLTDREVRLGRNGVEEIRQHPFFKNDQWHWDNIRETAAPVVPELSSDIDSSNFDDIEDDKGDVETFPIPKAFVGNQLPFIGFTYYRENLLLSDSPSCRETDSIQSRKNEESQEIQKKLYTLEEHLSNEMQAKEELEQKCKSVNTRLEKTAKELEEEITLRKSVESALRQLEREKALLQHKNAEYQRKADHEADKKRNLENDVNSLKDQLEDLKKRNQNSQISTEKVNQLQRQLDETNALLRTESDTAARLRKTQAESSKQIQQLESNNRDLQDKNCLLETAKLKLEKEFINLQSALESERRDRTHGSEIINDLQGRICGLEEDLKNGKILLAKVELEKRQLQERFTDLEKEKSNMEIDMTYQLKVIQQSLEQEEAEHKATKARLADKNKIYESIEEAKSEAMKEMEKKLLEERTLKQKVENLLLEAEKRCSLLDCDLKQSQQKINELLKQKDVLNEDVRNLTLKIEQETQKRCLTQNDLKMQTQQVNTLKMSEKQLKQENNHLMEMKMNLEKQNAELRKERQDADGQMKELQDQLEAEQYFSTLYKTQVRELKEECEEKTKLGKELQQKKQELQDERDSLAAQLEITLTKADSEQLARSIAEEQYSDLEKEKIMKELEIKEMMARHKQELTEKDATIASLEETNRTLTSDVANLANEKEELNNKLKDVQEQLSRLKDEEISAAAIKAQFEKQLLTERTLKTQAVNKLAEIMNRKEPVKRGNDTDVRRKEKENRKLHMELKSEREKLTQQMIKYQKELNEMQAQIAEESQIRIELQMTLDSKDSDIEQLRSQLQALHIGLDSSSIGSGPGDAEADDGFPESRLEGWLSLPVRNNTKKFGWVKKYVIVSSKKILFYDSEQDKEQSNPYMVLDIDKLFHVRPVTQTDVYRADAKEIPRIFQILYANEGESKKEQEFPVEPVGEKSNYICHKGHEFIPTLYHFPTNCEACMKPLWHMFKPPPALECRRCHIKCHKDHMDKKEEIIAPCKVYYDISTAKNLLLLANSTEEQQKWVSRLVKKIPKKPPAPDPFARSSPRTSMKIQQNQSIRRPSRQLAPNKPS
row,Compound,IC50
1,"COc1cccc(OC2CCN(c3ccc(-c4ccc5cn[nH]c5c4)c(OC)n3)C2=O)c1 (single isomer, unassigned) [Example 125, 1-(5-(1H-indazol-6-yl)-6-methoxypyridin-2-yl)-3-(3-methoxyphenoxy)pyrrolidin-2-one]",100 to 2200 nM
2,"COc1cccc(NC2CCN(c3ccc(-c4cn[nH]c4)c(OC)n3)C2=O)c1 (single isomer, unassigned) [Example 197, 1-(6-methoxy-5-(1H-pyrazol-4-yl)pyridin-2-yl)-3-((3-methoxyphenyl)amino) pyrrolidin-2-one]",< 10 nM
3,"Cc1nc(N2CCC(Nc3cccc(OCC4CC4)c3)C2=O)ccc1-c1cn[nH]c1 (single isomer, unassigned) [Example 191, 3-((3-(cyclopropylmethoxy)phenyl)amino)-1-(6-methyl-5-(1H-pyrazol-4-yl)pyridin-2-yl)pyrrolidin-2-one]",10 to 100 nM
4,"CCOc1cccc(NC2CCN(c3ccc(-c4cn[nH]c4)c(OC)n3)C2=O)c1 (single isomer, unassigned) [Example 219, 3-((3-ethoxyphenyl)amino)-1-(6-methoxy-5-(1H-pyrazol-4-yl)pyridin-2-yl)pyrrolidin-2-one]",< 10 nM
5,"COc1cccc(NC2CCN(c3ncc(-c4cn[nH]c4)cc3F)C2=O)c1 (single isomer, unassigned) [Example 358, 1-(3-fluoro-5-(1H-pyrazol-4-yl)pyridin-2-yl)-3-((3-methoxyphenyl)amino) pyrrolidin-2-one]",100 to 2200 nM
6,"COc1cccc(NC2CCN(c3ccc(-c4cn[nH]c4)c(C(F)(F)F)c3)C2=O)c1 (single isomer, unassigned) [Example 368, 1-(4-(1H-pyrazol-4-yl)-3-(trifluoromethyl)phenyl)-3-((3-methoxyphenyl)amino) pyrrolidin-2-one]",100 to 2200 nM
7,"COc1c(F)cccc1NC1CCN(c2ccc(-c3cn[nH]c3)cc2F)C1=O (single isomer, unassigned) [Example 343, 3-((3-fluoro-2-methoxyphenyl)amino)-1-(2-fluoro-4-(1H-pyrazol-4-yl)phenyl) pyrrolidin-2-one]",100 to 2200 nM
8,"COc1cccc(NC2CCN(c3ccc(-c4ccnc(N)n4)cc3)C2=O)c1 (single isomer, unassigned) [Example 79, 1-(4-(2-aminopyrimidin-4-yl)phenyl)-3-((3-methoxyphenyl)amino)pyrrolidin-2-one]",10 to 100 nM
9,"COc1cc(NC2CCN(c3ccc(-c4cn[nH]c4)cn3)C2=O)ccc1F (single isomer, unassigned) [Example 84, 1-(5-(1H-pyrazol-4-yl)pyridin-2-yl)-3-((4-fluoro-3-methoxyphenyl)amino)pyrrolidin-2-one]",10 to 100 nM
10,"COc1cccc(NC2CCN(c3ccc(-c4cn[nH]c4)cc3)C2=O)c1 (single isomer, unassigned) [Example 29, 1-(4-(1H-pyrazol-4-yl)phenyl)-3-((3-methoxyphenyl)amino)pyrrolidin-2-one]",< 10 nM
11,"COc1ccc(NC2CCN(c3ccc(-c4cn[nH]c4)cc3F)C2=O)cc1F (single isomer, unassigned) [Example 345, 1-(2-fluoro-4-(1H-pyrazol-4-yl)phenyl)-3-((3-fluoro-4-methoxyphenyl)amino) pyrrolidin-2-one]",100 to 2200 nM
12,"CCc1nc(N2CCC(Nc3cccc(OC)c3)C2=O)ccc1-c1cn[nH]c1 (single isomer, unassigned) [Example 314, 1-(6-ethyl-5-(1H-pyrazol-4-yl)pyridin-2-yl)-3-((3-methoxyphenyl)amino) pyrrolidin-2-one]",< 10 nM
13,"COc1cc(F)cc(NC2CCN(c3ccc(-c4cn[nH]c4)cc3)C2=O)c1 (single isomer, unassigned) [Example 27, 1-(4-(1H-pyrazol-4-yl)phenyl)-3-((3-fluoro-5-methoxyphenyl)amino)pyrrolidin-2-one]",< 10 nM
14,"COc1cccc(NC2CCN(c3cc(F)c(-c4cn[nH]c4)cc3F)C2=O)c1 (single isomer, unassigned) [Example 354, 1-(2,5-difluoro-4-(1H-pyrazol-4-yl)phenyl)-3-((3-methoxyphenyl)amino)pyrrolidin-2-one]",10 to 100 nM
15,"COc1cc(NC2CCN(c3ccc(-c4cn[nH]c4)cc3)C2=O)cc(OC)c1 (single isomer, unassigned) [Example 22, 1-(4-(1H-pyrazol-4-yl)phenyl)-3-((3,5-dimethoxyphenyl)amino)pyrrolidin-2-one]",100 to 2200 nM
16,"COc1cccc(NC2CCN(c3ccc(-c4cn[nH]c4)cc3Cl)C2=O)c1 (single isomer, unassigned) [Example 167, 1-(2-chloro-4-(1H-pyrazo1-4-yl)phenyl)-3 ((3-methoxyphenyl)amino)pyrrolidin-2-one]",100 to 2200 nM
17,"COc1cccc(NC2CCN(c3ccc(-c4cn[nH]c4)cc3)C2=O)c1C (single isomer, unassigned) [Example 326, 1-(4-(1H-pyrazol-4-yl)phenyl)-3-((3-methoxy-2-methylphenyl)amino) pyrrolidin-2-one]",10 to 100 nM
18,"COc1cc(F)cc(NC2CCN(c3ncc(-c4cn[nH]c4)cc3F)C2=O)c1 (single isomer, unassigned) [Example 360, 1-(3-fluoro-5-(1H-pyrazol-4-yl)pyridin-2-yl)-3-((3-fluoro-5-methoxyphenyl)amino) pyrrolidin-2-one]",100 to 2200 nM
19,"COc1cc(NC2CCN(c3ccc(-c4cn[nH]c4)cc3Cl)C2=O)ccc1F (single isomer, unassigned) [Example 163, 1-(2-chloro-4-(1H-pyrazol-4-yl)phenyl)-3-((4-fluoro-3-methoxyphenyl)amino) pyrrolidin-2-one]",100 to 2200 nM
20,"O=C1C(Nc2ccccc2)CCN1c1ccc(-c2cn[nH]c2)c(F)c1 (single isomer, unassigned) [Example 44, 1-(3-fluoro-4-(1H-pyrazol-4-yl)phenyl)-3-(phenylamino)pyrrolidin-2-one]",< 10 nM
21,"COc1ccc(F)c(NC2CCN(c3ccc(-c4cn[nH]c4)cn3)C2=O)c1 (single isomer, unassigned) [Example 304, 1-(5-(1H-pyrazol-4-yl)pyridin-2-yl)-3-((2-fluoro-5-methoxyphenyl)amino)pyrrolidin-2-one]",10 to 100 nM
22,"O=C1C(Nc2cccc(OC(F)F)c2)CCN1c1ccc(-c2cn[nH]c2)c(F)c1 (single isomer, unassigned) [Example 356, 3-((3-(difluoromethoxy)phenyl)amino)-1-(3-fluoro-4-(1H-pyrazol-4-yl)phenyl) pyrrolidin-2-one]",10 to 100 nM
23,"COc1cc(F)cc(NC2CCN(c3ccc(-c4cn[nH]c4)cc3F)C2=O)c1 (single isomer, unassigned) [Example 339, 1-(2-fluoro-4-(1H-pyrazol-4-yl)phenyl)-3-((3-fluoro-5-methoxyphenyl)amino) pyrrolidin-2-one]",10 to 100 nM
24,"CNc1nc(N2CCC(Nc3cccc(OC)c3)C2=O)ccc1-c1cn[nH]c1 (single isomer, unassigned) [Example 254, 3-((3-methoxyphenyl)amino)-1-(6-(methylamino)-5-(1H-pyrazol-4-yl)pyridin-2-yl)pyrrolidin-2-one]",10 to 100 nM

# Now from value to molecule:
row,IC50,Compound
1,10 to 100 nM,"CCc1cc(N2CCC(Nc3ccc(F)c(OC)c3)C2=O)ccc1-c1cn[nH]c1 (single isomer, unassigned) [Example 242, 1-(3-ethyl-4-(1H-pyrazol-4-yl)phenyl)-3-((4-fluoro-3-methoxyphenyl)amino) pyrrolidin-2-one]"
2,< 10 nM,"COc1cc(F)cc(NC2CCN(c3ccc(-c4cn[nH]c4)c(F)c3)C2=O)c1 (single isomer, unassigned) [Example 50, 1-(3-fluoro-4-(1 H-pyrazol-4-yl)phenyl)-3-((3-fluoro-5-methoxyphenyl)amino)pyrrolidin-2-one]"
3,100 to 2200 nM,"COc1cc(F)cc(NC2CCN(c3ccc(-c4cn[nH]c4)c(Cl)c3)C2=O)c1 (single isomer, unassigned) [Example 159, 1-(3-chloro-4-(1H-pyrazol-4-yl)phenyl)-3 ((3-fluoro-5-methoxyphenyl)amino) pyrrolidin-2-one]"
4,100 to 2200 nM,"COc1cc(F)ccc1NC1CCN(c2ccc(-c3cn[nH]c3)c(OC)c2)C1=O (single isomer, unassigned) [Example 144, 3-((4-fluoro-2-methoxyphenyl)amino)-1-(3-methoxy-4-(1H-pyrazol-4-yl)phenyl) pyrrolidin-2-one]"
5,< 10 nM,"COc1cc(NC2CCN(c3ccc(-c4cn[nH]c4)c(F)c3)C2=O)ccc1F (single isomer, unassigned) [Example 333, 3-((4-fluoro-3-methoxyphenyl)amino)-1-(3-fluoro-4-(1H-pyrazol-4-yl)phenyl) pyrrolidin-2-one]"
6,< 10 nM,"COc1cccc(NC2CCN(c3ccc(-c4cn[nH]c4)c(F)c3)C2=O)c1 (single isomer, unassigned) [Example 46, 1-(3-fluoro-4-(1H-pyrazol-4-yl)phenyl)-3-((3-methoxyphenyl)amino)pyrrolidin-2-one]"
7,< 10 nM,"COc1cc(F)cc(NC2CCN(c3ccc(-c4cn[nH]c4)c(OC)c3)C2=O)c1 (single isomer, unassigned) [Example 138, 3-((3-fluoro-5-methoxyphenyl)amino)-1-(3-methoxy-4-(1H-pyrazol-4-yl)phenyl) pyrrolidin-2-one]"
8,10 to 100 nM,"CCOc1cc(N2CCC(Nc3ccc(F)c(OC)c3)C2=O)ccc1-c1cn[nH]c1 (single isomer, unassigned) [Example 39, 1-(3-ethoxy-4-(1H-pyrazol-4-yl)phenyl)-3-((4-fluoro-3-methoxyphenyl)amino)pyrrolidin-2-one]"
9,10 to 100 nM,"COc1cc(NC2CCN(c3ccc(-c4cn[nH]c4)c(OC(F)F)c3)C2=O)ccc1F (single isomer, unassigned) [Example 107, 1-[3-(difluoromethoxy)-4-(1H-pyrazol-4-yl)phenyl]-3-[(4-fluoro-3-methoxyphenyl)amino]pyrrolidin-2-one]"
10,10 to 100 nM,"COc1cc(N2CCC(Nc3c(F)cccc3OC)C2=O)ccc1-c1cn[nH]c1 (single isomer, unassigned) [Example 136, 3-((2-fluoro-6-methoxyphenyl)amino)-1-(3-methoxy-4-(1H-pyrazol-4-yl)phenyl) pyrrolidin-2-one]"

# From patent US10112929B2, “Lactams as inhibitors of rock” (BRISTOL-MYERS SQUIBB COMPANY, priority 2015, dated 2018)
